Key:
MCF7 cells = experiment: Cell proliferation assay MCF7; format: cell-based; settings: MCF7 human breast cancer cells; 120 hours; ATPlite 1 Step
In short: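 Cells grown 24 h in DMEM GlutaMAX/10% FBS, then exposed to compounds in duplicate (≤0.5% DMSO) for 120 h. Viability read as ATP luminescence (ATPlite 1 Step). Seeding set to reach ~90% confluence at harvest.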

KDM2B (FBXL10) = biological target: T1, KDM2B (FBXL10) (Homo sapiens, UniProt Q8NHM5); experiment: Histone lysine demethylase AlphaLISA assay, KDM2B; format: biochemical; settings: read-out: KDM2B HDME Inhibition IC50
T1 sequence (Q8NHM5 1-650): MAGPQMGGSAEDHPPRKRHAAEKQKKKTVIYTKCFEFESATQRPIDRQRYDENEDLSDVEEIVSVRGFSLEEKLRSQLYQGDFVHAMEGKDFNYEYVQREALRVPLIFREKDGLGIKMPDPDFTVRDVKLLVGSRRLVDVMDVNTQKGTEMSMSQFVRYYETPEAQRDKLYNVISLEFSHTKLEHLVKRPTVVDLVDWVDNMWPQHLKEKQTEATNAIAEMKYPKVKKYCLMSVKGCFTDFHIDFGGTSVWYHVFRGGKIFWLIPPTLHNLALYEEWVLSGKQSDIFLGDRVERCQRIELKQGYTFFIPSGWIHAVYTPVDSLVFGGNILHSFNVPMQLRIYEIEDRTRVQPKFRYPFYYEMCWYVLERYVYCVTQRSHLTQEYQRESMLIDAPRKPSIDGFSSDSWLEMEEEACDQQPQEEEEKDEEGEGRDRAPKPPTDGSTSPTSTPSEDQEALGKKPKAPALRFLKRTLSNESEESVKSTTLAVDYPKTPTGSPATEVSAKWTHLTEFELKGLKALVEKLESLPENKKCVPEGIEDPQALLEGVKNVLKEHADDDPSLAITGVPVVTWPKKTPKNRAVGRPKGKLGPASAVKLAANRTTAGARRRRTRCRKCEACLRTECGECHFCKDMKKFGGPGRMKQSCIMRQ
In short: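 AlphaLISA demethylation readout: enzyme preincubated 10 min, then 10 min with compounds in 3% DMSO buffer, before biotinylated methyl-lysine histone peptide substrate with 25 μM L-Asc and 10 μM α-KG, room temperature. Acceptor beads then streptavidin donor beads added, dark incubation, plates read.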

H3K4me3 mark = experiment: Histone lysine demethylase immunofluorescence assay, non-transfected U2OS cells; format: cell-based; settings: Homo sapiens, staining of the H3K4me3 mark, 20 hours incubation with compound
Method: U2OS cells were harvested and seeded into multi well plates into media containing compound. The media used was DMEM containing 5% FBS and pen/strep. 20 hours after incubation of cells with compounds, the cells were washed once in PBS, harvested by fixation with formaldehyde 4% aqueous solution, and washed in PBS. Subsequently, the cells were permeabilized in PBS with 0.2% Triton X-100. Blocking was performed in PBS with 0.2% Triton X-100 and 5% FBS. The cells were incubated with αH3K4me3 primary antibody (Cell Signaling, #9751S) in blocking solution over night at 4° C. After incubation with primary antibody, the cells were washed with PBS, incubated with secondary antibody (Alexa fluor 594 goat anti rabbit IgG, Invitrogen, A11012) and Hoechst, (Sigma, 33342) in blocking solution, and washed again with PBS. Finally, PBS was added and high throughput imaging and analysis were performed by an IN Cell Analyzer 1000 (GE Healthcare). The IC50 values were based on an average measure of the staining of the H3K4me3 mark in cells.

CCN(CC)CCCCNCc1cc(CNC(=O)C(F)(F)F)ccn1 [Compound 1, N-{[2-({[4-(diethylamino)butyl]-amino}methyl)pyridin-4-yl]methyl}-2,2,2-trifluoroacetamide]
EC50 (MCF7 cells): < 250 nM
IC50 (KDM2B (FBXL10)): > 2500 nM
IC50 (H3K4me3 mark): < 250 nM

CN(C)CCCNCc1cc(CN)ccn1 [Compound 3, [2-({[3-(dimethylamino)propyl]-amino}methyl)pyridin-4-yl]methanamine]
EC50 (MCF7 cells): < 250 nM
IC50 (KDM2B (FBXL10)): > 2500 nM
IC50 (H3K4me3 mark): < 250 nM

CCN(CCN(C)C)C(=O)CNCc1cc(CN)ccn1 [Compound 4, 2-({[4-(aminomethyl)pyridin-2-yl]methyl}amino)-N-[2-(dimethylamino)ethyl]-N-ethylacetamide]
EC50 (MCF7 cells): < 250 nM
IC50 (KDM2B (FBXL10)): > 2500 nM
IC50 (H3K4me3 mark): < 250 nM

CCN(CC)CCCCN(Cc1cc(CNC(=O)C(F)(F)F)ccn1)C(=O)C(F)(F)F [Compound 6, N-[4-(diethylamino)butyl]-- 2,2,2-trifluoro-N-({4-[(trifluoroacetamido)-methyl]pyridin-2-yl}methyl)acetamide]
EC50 (MCF7 cells): < 250 nM
IC50 (KDM2B (FBXL10)): > 2500 nM
IC50 (H3K4me3 mark): < 250 nM

NCc1ccnc(CNCCCCN2CCC2)c1 [Compound 7, [2-({[4-(azetidin-1-yl)butyl]amino}methyl)-pyridin-4-yl]-methanamine]
EC50 (MCF7 cells): 250 to 2500 nM
IC50 (KDM2B (FBXL10)): > 2500 nM
IC50 (H3K4me3 mark): < 250 nM

COc1ccccc1CN1CCC(NC(=O)CNCc2cc(CN)ccn2)CC1 [Compound 9, 2-({[4-(aminomethyl)pyridin-2-yl]methyl}amino)-N-{1-[(2-methoxyphenyl)methyl]-piperidin-4-yl}acetamide]
EC50 (MCF7 cells): > 2500 nM
IC50 (KDM2B (FBXL10)): > 2500 nM
IC50 (H3K4me3 mark): 250 to 2500 nM

CN(C)C(=O)CNCc1cc(CNCC#N)ccn1 [Compound 13, 2-{[(4-{[(cyanomethyl)amino]-methyl}pyridin-2-yl)methyl]amino}-N,N-dimethylacetamide]
IC50 (KDM2B (FBXL10)): > 2500 nM
IC50 (H3K4me3 mark): 250 to 2500 nM

CC(C#N)NCc1ccnc(CNCCCN(C)C)c1 (centres unmarked) [Compound 22, 2-({[2-({[3-(dimethylamino)propyl]-amino}methyl)pyridin-4-yl]methyl}amino)-propanenitrile]
EC50 (MCF7 cells): < 250 nM
IC50 (KDM2B (FBXL10)): > 2500 nM
IC50 (H3K4me3 mark): < 250 nM

N#CCNCc1ccnc(CNCCCCN(Cc2ccccc2)C2CC2)c1 [Compound 23, 2-[({2-[({4-[benzyl(cyclopropyl)-amino]butyl}amino)-methyl]pyridin-4-yl}methyl)amino]-acetonitrile]
IC50 (KDM2B (FBXL10)): > 2500 nM
IC50 (H3K4me3 mark): < 250 nM

CNC(C#N)c1ccnc(CNCCCN(C)C)c1 (centres unmarked) [Compound 24, 2-[2-({[3-(dimethylamino)propyl]-amino}methyl)pyridin-4-yl]-2-(methylamino)-acetonitrile]
IC50 (KDM2B (FBXL10)): > 2500 nM
IC50 (H3K4me3 mark): < 250 nM

CCN(CCN(C)C)C(=O)CNCc1cc(CNC(=O)C(F)(F)F)ccn1 [Compound 25, N-[(2-{[({[2-(dimethylamino)ethyl]-(ethyl)carbamoyl}-methyl)amino]methyl}-pyrtdin-4-yl)methyl]-2,2,2-trifluoroacetamide]
EC50 (MCF7 cells): < 250 nM
IC50 (KDM2B (FBXL10)): > 2500 nM
IC50 (H3K4me3 mark): < 250 nM

CN(C)C(=O)CNCc1cc(/C=N\C2CC2)ccn1 [Compound 33]
IC50 (KDM2B (FBXL10)): 250 to 2500 nM
IC50 (H3K4me3 mark): 250 to 2500 nM

CN(C)C(=O)CNCc1cc(/C=N/CCC2CCCCC2)ccn1 [Compound 36, 2-[({4-[[(2-cyclohexylethyl)imino]-methyl]pyridin-2-yl}methyl)amino]-N,N-dimethylacetamide]
EC50 (MCF7 cells): 250 to 2500 nM
IC50 (KDM2B (FBXL10)): > 2500 nM
IC50 (H3K4me3 mark): < 250 nM

CN(C)CCCNCc1cc(/C=N/CCN(C)C)ccn1 [Compound 38, ({4-[{[2-(dimethylamino)ethyl]-imino}methyl]pyridin-2-yl}methyl)[3-(dimethylamino)-propyl]amine]
EC50 (MCF7 cells): < 250 nM
IC50 (KDM2B (FBXL10)): > 2500 nM
IC50 (H3K4me3 mark): < 250 nM

CN1CCCC1CCNCc1cc(/C=N/C2CC2)ccn1 (stereo not drawn) [Compound 40, N-{[2-({[2-(l-methylpyrrolidin-2-yl)ethyl]amino}methyl)-pyridin-4-yl]methylidene}-cyclopropanamine]
EC50 (MCF7 cells): 250 to 2500 nM
IC50 (KDM2B (FBXL10)): > 2500 nM
IC50 (H3K4me3 mark): < 250 nM
